From ChEMBL document CHEMBL2203060, “Design, synthesis and biological evaluation of N-arylphenyl-2,2-dichloroacetamide analogues as anti-cancer agents” (Bioorg Med Chem Lett, 2012)

How the values were obtained:
Assay type in all cases: functional, cell-based
A549 = test: Cytotoxicity against human A549 cells after 68 hrs by MTT assay; conditions: A549, 68 h
[1] = Cytotoxicity against human KB-3-1 cells after 68 hrs by MTT assay; conditions: KB 3-1, 68 h
NCI-H460 = test: Cytotoxicity against human H460 cells after 68 hrs by MTT assay; conditions: NCI-H460, 68 h

Row | Structure (SMILES) | IC50 (A549) | IC50 [1] | IC50 (NCI-H460)
1 | O=C(Nc1cccc(-c2nccs2)c1)C(Cl)Cl | > 50 µM | > 50 µM | > 50 µM
2 | O=C(Nc1cc(-c2ccc3c(c2)OCO3)cc(-c2ccc3c(c2)OCO3)c1)C(Cl)Cl | 1.73 µM | 2.4 µM | 1.04 µM
3 | O=C(Nc1cc(-c2ccc(OC3CCCCO3)cc2)cc(-c2ccc(OC3CCCCO3)cc2)c1)C(Cl)Cl (stereo not drawn) | 2.75 µM | 7.22 µM | 2.42 µM
4 | CC(C)c1ccc(-c2cc(NC(=O)C(Cl)Cl)cc(-c3ccc(C(C)C)cc3)c2)cc1 | 17.4 µM | > 30 µM | 24.8 µM
5 | COc1ccc(-c2cc(NC(=O)C(Cl)Cl)cc(-c3ccc(OC)c(F)c3)c2)cc1F | 1.95 µM | 2.94 µM | 1.76 µM
6 | COc1cc(F)cc(-c2cc(NC(=O)C(Cl)Cl)cc(-c3cc(F)cc(OC)c3)c2)c1 | 8.99 µM | 5.99 µM | 2.9 µM
7 | O=C(Nc1cccc(-c2cccc(NC(=O)C(Cl)Cl)c2)c1)C(Cl)Cl | 47.9 µM | > 50 µM | > 50 µM
8 | Cc1ccc(-c2cccc(NC(=O)C(Cl)Cl)c2)cc1 | 8.3 µM | > 50 µM | 8 µM
9 | O=C(Nc1cccc(-c2ccc(F)cc2)c1)C(Cl)Cl | 7.84 µM | 26.2 µM | > 50 µM
10 | O=C(Nc1cccc(-c2ccc(Cl)cc2)c1)C(Cl)Cl | 36.2 µM | 38.2 µM | > 50 µM
11 | COc1ccc(-c2cccc(NC(=O)C(Cl)Cl)c2)cc1 | 8.53 µM | > 50 µM | 43.3 µM
12 | O=C(Nc1cccc(-c2ccc(C(F)(F)F)cc2)c1)C(Cl)Cl | 23.5 µM | > 50 µM | 33.5 µM
13 | O=C(Nc1cccc(-c2ccc(-c3ccccc3)cc2)c1)C(Cl)Cl | > 50 µM | > 50 µM | 10.9 µM
14 | COC(=O)c1ccc(-c2cccc(NC(=O)C(Cl)Cl)c2)cc1 | > 50 µM | > 50 µM | > 50 µM
15 | COc1ccccc1-c1cc(NC(=O)C(Cl)Cl)cc(-c2ccccc2OC)c1 | 25.5 µM | > 30 µM | > 30 µM
16 | COc1cccc(-c2cc(NC(=O)C(Cl)Cl)cc(-c3cccc(OC)c3)c2)c1 | 9.4 µM | > 30 µM | > 30 µM
17 | COc1ccc(-c2cc(NC(=O)C(Cl)Cl)cc(-c3ccc(OC)cc3)c2)cc1 | 20.8 µM | > 30 µM | > 30 µM
18 | CCOc1ccccc1-c1cc(NC(=O)C(Cl)Cl)cc(-c2ccccc2OCC)c1 | 7.28 µM | 8.73 µM | 5.09 µM
19 | CCOc1cccc(-c2cc(NC(=O)C(Cl)Cl)cc(-c3cccc(OCC)c3)c2)c1 | 8.83 µM | 14.8 µM | 4.95 µM
20 | CCOc1ccc(-c2cc(NC(=O)C(Cl)Cl)cc(-c3ccc(OCC)cc3)c2)cc1 | 8.05 µM | 23.9 µM | 6.08 µM
21 | CSc1ccccc1-c1cc(NC(=O)C(Cl)Cl)cc(-c2ccccc2SC)c1 | 6.51 µM | > 30 µM | > 30 µM

Row | Structure (SMILES) | IC50 (A549) | IC50 [1] | IC50 (NCI-H460)
22 | CSc1cccc(-c2cc(NC(=O)C(Cl)Cl)cc(-c3cccc(SC)c3)c2)c1 | 15.9 µM | > 30 µM | > 30 µM
23 | CSc1ccc(-c2cc(NC(=O)C(Cl)Cl)cc(-c3ccc(SC)cc3)c2)cc1 | 22.3 µM | > 30 µM | > 30 µM
24 | CC(C)Oc1ccc(-c2cc(NC(=O)C(Cl)Cl)cc(-c3ccc(OC(C)C)cc3)c2)cc1 | 3.82 µM | 8.85 µM | 2.86 µM
25 | O=C(Nc1cccc(-c2ccccc2)c1)C(Cl)Cl | 8.9 µM | 46.8 µM | 20.2 µM
26 | O=C(Nc1cccc(-c2ccoc2)c1)C(Cl)Cl | 8.48 µM | > 50 µM | 37.6 µM
27 | O=C(Nc1cccc(-c2cccs2)c1)C(Cl)Cl | 47.6 µM | > 50 µM | > 50 µM
28 | O=C(Nc1cccc(-c2ccsc2)c1)C(Cl)Cl | > 50 µM | > 50 µM | > 50 µM
29 | O=C(Nc1cccc(-c2ccccn2)c1)C(Cl)Cl | > 50 µM | > 50 µM | > 50 µM
30 | Cc1ccccc1-c1cccc(NC(=O)C(Cl)Cl)c1 | 9.86 µM | 42 µM | 31.6 µM
31 | O=C(Nc1cccc(-c2ccccc2F)c1)C(Cl)Cl | 13.2 µM | 48.3 µM | 26.8 µM
32 | O=C(Nc1cccc(-c2ccccc2Cl)c1)C(Cl)Cl | 22.6 µM | > 50 µM | > 50 µM
33 | COc1ccccc1-c1cccc(NC(=O)C(Cl)Cl)c1 | 13.1 µM | 13.1 µM | 40.4 µM
34 | O=C(Nc1cccc(-c2ccccc2C(F)(F)F)c1)C(Cl)Cl | 7.5 µM | 35.9 µM | 7.55 µM
35 | Cc1cccc(-c2cccc(NC(=O)C(Cl)Cl)c2)c1 | 8.7 µM | > 50 µM | 24.2 µM
36 | O=C(Nc1cccc(-c2cccc(F)c2)c1)C(Cl)Cl | 9.53 µM | > 50 µM | > 50 µM
37 | O=C(Nc1cccc(-c2cccc(Cl)c2)c1)C(Cl)Cl | 21.4 µM | > 50 µM | > 50 µM
38 | COc1cccc(-c2cccc(NC(=O)C(Cl)Cl)c2)c1 | 4.31 µM | 43.3 µM | 33.8 µM
39 | O=C(Nc1cccc(-c2cccc(C(F)(F)F)c2)c1)C(Cl)Cl | 18.5 µM | > 50 µM | 30.2 µM
40 | Nc1cccc(-c2cccc(NC(=O)C(Cl)Cl)c2)c1 | > 50 µM | 26.1 µM | > 50 µM
41 | O=C([O-])C(Cl)Cl.[Na+] [SODIUM DICHLOROACETATE] | 4290 µM | 5880 µM | 3890 µM
